From patent US4389486A, “Biologically pure culture” (Kowa Company, Ltd., priority 1977, dated 1983)

Columns and labels:
Acute toxicity in mice = conditions: mouse, in vivo
From the text: The acute toxicities of the KA-6606 I, II, III and IV of this invention determined by using mice are as follows.

Solubility = assay type: physicochemical
Stability to pH = assay type: physicochemical
[1] = in chloroform, ethyl acetate, diethyl ether, hexane and petroleum ether

SMILES	LD50 (Acute toxicity in mice; iv.) [mg/kg]	LD50 (Acute toxicity in mice; sc.) [mg/kg]	Solubility (Solubility; [1])	Solubility (Solubility; in ethanol)	Solubility (Solubility; in methanol)	Solubility (Solubility; in water)	Stability (Stability to pH; in basicity and strong acidity)	Stability (Stability to pH; pH of 3 to 8)	Stability (Stability to pH; in strong acidity)	Stability (Stability to pH; pH of at least 2)
COC1CC(N)C(OC2OC(C(C)N)CCC2N)C(O)C1N(C)C(=O)CNC(N)=O (centres unmarked) [KA-6606 III]	> 200	> 800	insoluble	slightly soluble	easily soluble	Very readily soluble	gradually decomposed and inactivated	Stable	–	–
CNC1C(OC)CC(N)C(OC2OC(C(C)N)CCC2N)C1O (centres unmarked) [KA-6606 II]	> 400	> 1000	insoluble	slightly soluble	easily soluble	Very readily soluble	–	–	gradually decomposed and inactivated	Stable
COC1CC(N)C(OC2OC(C(C)N)CCC2N)C(O)C1N(C)C(=O)CNC=O (centres unmarked) [KA-6606 IV]	> 200	> 800	insoluble	slightly soluble	easily soluble	Very readily soluble	gradually decomposed and inactivated	Stable	–	–
COC1CC(N)C(OC2OC(C(C)N)CCC2N)C(O)C1N(C)C(=O)CN (centres unmarked) [KA-6606 I]	50 to 100	200 to 400	Insoluble	slightly soluble	Easily soluble	Very readily soluble	gradually decomposed and inactivated	Stable	–	–
